Common to all, as to assay type: cell-based
One data set deals with A549. In words: MTT cell viability assay. The settings on record: A549, 24 h. The procedure: (§1) FIG. 7 illustrates in vitro delivery of peptidomimetic drug. (A). Cell viability assay. Beas-2B cells were incubated with 50 μM (KLAKLAK)2-ECP(32-41), ECP(32-41), or (KLAKLAK)2, at 37° C. for 24 h. Effects of (KLAKLAK)2-ECP(32-41) on the cell viability of Beas-2B, A549 and CHO-K1 cells (B), as well as Caco-2 and AGS cells (C). Cell viability in each group was determined by MTT assay and each experiment was performed in triplicate.
(§2) The cytotoxic effect of peptides on the cell growth were determined by a colorimetric assay using 3-(4,5-dimethylthiazol-2-yl)-2,5-diphenyltetrazolium bromide (MTT) (US Biological, Marblehead, Mass.). Cells were plated in a 96-well plate (1.0×10^4 cells/well) and incubated at 37° C. overnight. Each sample was incubated with the indicated concentration (1-100 μM) of peptide. Twenty-four hours after treatment with the indicated peptide, MTT was added, and cell growth was monitored at A570 to measure the mitochondrial-dependent formation of a colored product.
For orientation: Tetrazolium dyes change colour on reduction, which living cells bring about.

A further data set has as its system AGS. In words: MTT cell viability assay. The settings on record: 24 h. The procedure:
as §1, §2

For data set [1], the system named is Beas-2B cells. Description: MTT cell viability assay. The settings on record: for cytotoxicity / cell death: Beas-2B cells, 24 h, MTT. The procedure: as §1, §2
The test system of a further data set is CHO-K1. Description: MTT cell viability assay. The settings on record: CHO-K1, 24 h. Here is the method:
as §1, §2

Another data set concerns Caco-2. Description: MTT cell viability assay. The conditions noted are these: Caco-2, 24 h. Here is the method: as §1, §2
Data set [2] has as its system Beas-2B cells. In words: Flow cytometry of cellular uptake of fluorescence-labeled peptides/proteins. The settings on record: 37° C., 30 min; for cellular uptake of peptide cargo: 5 μM. The procedure: FIG. 2 illustrates cellular uptake of ECP(32-41). Beas-2B cells were incubated with 20 μM FITC (control) or FITC-ECP(32-41) at 37° C. for 30 min. After treatment, the cells were washed with 500 μl phosphate buffered saline (PBS) and treated with trypsin at 37° C. for 10 min to remove adherent extracellular peptides. The cells were resuspended in 500 μl PBS and analyzed by flow cytometry. The cellular uptake activity was expressed as mean fluorescence intensity (MFI) using FACScalibur (BD Biosciences, Franklin Lakes, N.J.) flow cytometer (FACS). The data represented the means of triplicate incubations.
FIG. 5 illustrates in vitro delivery of peptide. Beas-2B cells were incubated with 5 μM FITC (control), FITC-Dp2 or FITC-Dp2-ECP(32-41) at 37° C. for 1 h. After treatment, cells were washed with 500 μl PBS and treated with trypsin at 37° C. for 10 min to remove adherent extracellular peptides. The cells were resuspended in 500 μl PBS and analyzed by flow cytometry. The cellular uptake activity was expressed as mean fluorescence intensity (MFI) using FACScalibur (BD Biosciences, Franklin Lakes, N.J.) flow cytometer (FACS). The data represented the means of triplicate incubations.
FIG. 6 illustrates in vitro delivery of protein. […] The cells were resuspended in 500 μl PBS and analyzed by flow cytometry. The cellular uptake activity was expressed as mean fluorescence intensity (MFI) using FACScalibur (BD Biosciences, Franklin Lakes, N.J.) flow cytometer (FACS). […]
Cells (2.0×10^5 cells/well) were plated into a 6-well microplate and cultured for 24 h in RPMI 1640 medium containing 10% heat-inactivated bovine serum (Beas-2B). After complete adhesion, the cells were incubated at 37° C. with fluorescence-labeled peptides dissolved in fresh serum-containing medium prior to washing with PBS. […] The washing cycle was repeated again and the cells were suspended in PBS and subjected to fluorescence analysis on a FACScalibur (BD Biosciences, Franklin Lakes, N.J.) flow cytometer (FACS) using 488-nm laser excitation and a 515-545-nm emission filter. […]
In general terms: In flow cytometry, cells or beads pass a laser one at a time.

Data set [3] has as its system Beas-2B cells. Description: Confocal microscopy of cellular uptake and intracellular distribution. The settings on record: for entry into Beas-2B cells (minimal length requirement): 5 μM FITC-labeled peptide, 30 min. Here is the method:
FIG. 3 illustrates intracellular distribution of cell-penetrating ECP(32-41). Beas-2B cells were incubated with 5 μM FITC-ECP(32-41) at 37° C. for 5 or 60 min. After wash with 1 ml PBS buffer twice, the cellular uptake was analyzed by confocal laser scanning microscopy. Magnification ford: 63×. Scale bar: 50
FIG. 4 illustrates minimal length requirement of cell penetration peptide. Beas-2B cells were incubated with 5 μM FITC-ECP(32-41), FITC-ECP(32-41)D1, and FITC-ECP(32-41)D2 separately at 37° C. for 30 min. After wash with 1 ml PBS buffer twice, the cellular uptake was analyzed by confocal laser scanning microscopy. Magnification fold: 40×. Scale bar: 50
Cells (1.0×10^4 cells/well) were plated on 18-mm glass-bottomed dishes (Marienfeld, Germany) and cultured in medium containing 10% heat-inactivated fetal bovine serum for 24 h. After complete adhesion, the cell culture medium was removed, and then incubated at 37° C. in fresh medium containing the fluorescence-labeled peptides. The cells were washed with PBS, then fixed by 2% (w/v) paraformaldehyde (PFA) in PBS for 15 min, and 50 mM ammonium chloride in PBS was added to quench with fluoresce from PFA. Distribution of the fluorescence-labeled peptides in the cells was analyzed using a confocal scanning laser microscope (Zeiss).

Entries after “also recorded” stand apart in the source; their conditions may differ. Residues, ends and D or L forms follow the SMILES beside them. No end group written: not given here. *: point of attachment. FITC = O=C1OC2(c3ccc(O)cc3Oc3cc(O)ccc32)c2ccc(NC(=S)*)cc21

With `CC(C)C[C@H](NC(=O)[C@H](CCCCN)NC(=O)[C@H](C)NC(=O)[C@H](CC(C)C)NC(=O)[C@H](CCCCN)NC(=S)Nc1ccc2c(c1)C(=O)OC21c2ccc(O)cc2Oc2cc(O)ccc21)C(=O)N[C@@H](C)C(=O)N[C@@H](CCCCN)C(=O)N[C@@H](CCCCN)C(=O)N[C@@H](CC(C)C)C(=O)N[C@@H](C)C(=O)N[C@@H](CCCCN)C(=O)N[C@@H](CC(C)C)C(=O)N[C@@H](C)C(=O)N[C@@H](CCCCN)C(=O)N[C@@H](CC(N)=O)C(=O)N[C@@H](Cc1ccc(O)cc1)C(=O)N[C@@H](CCCNC(=N)N)C(=O)N[C@@H](Cc1c[nH]c2ccccc12)C(=O)N[C@@H](CCCNC(=N)N)C(=O)N[C@@H](CS)C(=O)N[C@@H](CCCCN)C(=O)N[C@@H](CC(N)=O)C(=O)N[C@@H](CCC(N)=O)C(=O)N[C@@H](CC(N)=O)C(=O)O` [(KLAKLAK)2-ECP(32-41)] ({FITC}-KLAKLAKKLAKLAKNYRWRCKNQN-OH; N-terminus and C-terminus assumed), the “cytotoxicity (cell viability)” value with A549, in the data set on AGS, in the data set with CHO-K1 and in the data set with Caco-2 was “strong cytotoxicity” throughout. Also, the “cytotoxicity / cell death” value in the data set with Beas-2B cells [1] (listed as FITC-(KLAKLAK)2-ECP(32-41)) is “induce markedly cell death; also recorded: strong cytotoxicity”.
As to “(KLAKLAK)2: previously reported proapoptotic domain, peptidomimetic, SEQ ID NO: 6 (KLAKLAKKLAKLAK; (KLAKLAK)2) [reference compound]”, the cell-penetrating activity result in the data set with Beas-2B cells [1] (stated with the Beas-2B viability results (FIG. 7A)) is on record as “lacking”.
Regarding “Dp2-ECP(32-41): recombinant Dp2 peptide fused with ECP(32-41), SEQ ID NO: 5 (IIHRGKPFQLEAVNYRWRCKNQN; Dp2-ECP(32-41))”, in the data set on Beas-2B cells [2], the “cellular uptake of peptide cargo” value is “able to enter the cells”.
For “ECP(32-41) D1: C-terminally truncated ECP(32-41) peptide, SEQ ID NO: 2 (NYRWRCKNQ; ECP(32-41)D1)”, the “entry into Beas-2B cells (minimal length requirement)” value (“entry into Beas-2B cells” for short) in the data set on Beas-2B cells [3] (37° C.) is reported as “entered Beas-2B cells”.
As for “ECP(32-41): 10 amino acid cell penetrating peptide from eosinophil cationic protein residues 32-41, SEQ ID NO: 1 (NYRWRCKNQN; ECP(32-41))”, the “entry into Beas-2B cells” value in the data set with Beas-2B cells [3] (37° C.) was “entered Beas-2B cells”. In the data set on Beas-2B cells [3] (5 μM, 37° C.), the intracellular localization entry was “both cytoplasm and nucleus”. For the same molecule, in the data set on Beas-2B cells [1], the “cytotoxicity / cell death” value is recorded as “lacking”.
Take “ECP(32-41)D2: C-terminally truncated ECP(32-41) peptide, SEQ ID NO: 3 (NYRWRCKN; ECP(32-41)D2)”: in the data set on Beas-2B cells [3] (37° C.), the “entry into Beas-2B cells” value is given as “could not”.
For the molecule “FITC-Dp2: Dp2 peptide (SEQ ID NO: 4), the group 2 allergen of Dermatophagoides pteronyssinus, FITC-labeled (IIHRGKPFQLEAV; not fully specified (N-terminus); also: FITC label) [reference compound]”, the “cellular uptake of peptide cargo” value with Beas-2B cells [2] was “only Dp2-ECP(32-41) was able to enter the cells”.
As to “FITC-ECP(32-41): fluorochrome-tagged peptide, FITC-labeled ECP(32-41) (SEQ ID NO: 1) ({FITC}-NYRWRCKNQN)”, the “cellular uptake (fluorescent signal shift)” value in the data set with Beas-2B cells [2] (20 μM, trypsinized) is “significant uptake”. For the same molecule, the “fluorescence signal inside the cells” value is given as “a clear fluorescence signal inside the cells” in the data set on Beas-2B cells [3] (5 μM, 5 min) and “Stronger signal” in the data set with Beas-2B cells [3] (5 μM, up to 60 min).

(Values after patent US8372951B2, “Cell penetrating peptides for intracellular delivery” (National Tsing Hua University, priority 2010, dated 2013).)
